Literature values as cited in patent US20110015074A1, “STABILIZED HERBICIDAL FORMULATIONS AND METHODS OF USE” (priority 2009, published 2011).

Conditions: sunlight (UV), after the end of the second year of storage period

## CCSC(C)CC1CC(=O)C(/C(CC)=N/OC/C=C/Cl)=C(O)C1 (racemic) [clethodim (technical), (±)-2-[(E)-1-[(E)-3-Chloroallyloxyimino]propyl]-5-[2-(ethylthio)propyl]-3-hydroxycyclohex-2-enone]
  loss or degradation of clethodim: 42.33 % active ingredient
